The conditions of data set [1]: prior-art characterisation; cited from earlier work.
A short description of data set [2]: Odor character / fragrance assessment of the material and fractions.
For the next data set, the system named is subjects. Put plainly: Determination of approximate aqueous odor threshold (paired beakers, sniffing). The format is in vivo. Set-up: key: “X” means correct positive identification; “-” means unable to identify. Here is the method: 2 mg of the compound of the invention according to Example I were dissolved in 1.0 ml ethanol and serial dilutions made in deionized water to give test solutions of the compound at concentrations of 100, 20, 4, and 1 ppb.
Pairs of loosely-covered beakers were presented to three subjects, one beaker containing deionized water and the other a test solution. The subjects were asked to identify the beaker containing the test solution by removing the covers and sniffing, with the following results (“X” means correct positive identification, “-” means unable to identify): […]

A short description of data set [3]: Assessment of stability of the compound (olfactory assessment of stored aqueous solution). The class given is physicochemical. As to the method: 50 ml of a 250-ppb aqueous solution of the compound of the invention according to Example I was held in a covered 100 ml glass weighing bottle for seven months. Environmental conditions were ambient room light (fluorescent and indirect sunlight during daytime; dark at night) and temperature (16-26° C.). The bottle was opened approximately bi-weekly, admitting fresh air and allowing olfactory assessment of the odor strength.

Like-named read-outs stand apart in the source and are kept apart here.

On to `CCC(=O)C1CCC=CCCC=CCCC1` (centres unmarked) [1-(4,8-cyclododecadienyl)-1-propanone], for which the odor entry in data set [1] is “cedarwood, amber, pepper”.
For `CC(=O)/C=C/[C@@H]1C(C)=CCCC1(C)C` [(S)-alpha-ionone], the odor entry in data set [1] is “cedarwood, raspberry”.
As for `C=C(C[C@H](C)CO)[C@H]1CC=C(C)C1(C)C` [(−)-(1′R,2S)-2-methyl-4-(2′,2′,3′-trimethyl-3′-cyclopenten-1′-yl)-4-penten-1-ol], in data set [1], the odor result is reported as “sandalwood; cedar”.
Turning to `C[C@H]1C(=O)C[C@@H]2[C@@H]3[C@H]1[C@@]2(C)CCCC3(C)C` [The C-9 epimer, (1R,2S,7R,8R,9R)-2,6,6,9-tetramethyltricyclo-[5.4.0.0^2,8]undecan-10-one, reference compound], in data set [2], the odor character result is reported as “no distinctive or useful fragrance properties”.
With `CC1CCC2C(C)(C)C3CC12CC1OC13C` (centres unmarked) [cedrene epoxide], the odor entry in data set [1] was “woody-amber-camphor”.
Take `CC(=O)O[C@]1(C)CC[C@@]23C[C@@H]1C(C)(C)[C@@H]2CC[C@H]3C` [cedryl acetate]: the odor entry in data set [1] is “woody-vetiver”.
As for `CO[C@@]1(C)CC[C@@]23C[C@@H]1C(C)(C)[C@@H]2CC[C@H]3C` [methyl cedryl ether], in data set [1], the odor entry is “woody-amber”.
`CC(=O)C1=C(C)[C@@H]2C[C@@]3(C1)[C@H](C)CC[C@H]3C2(C)C` [methyl cedryl ketone]: in data set [1], the odor entry was “musk-woody”.
Consider `C[C@@H]1C(=O)C[C@@H]2[C@@H]3[C@H]1[C@@]2(C)CCCC3(C)C` [the compound of the invention, (1R,2S,7R,8R,9S)-2,6,6,9-tetramethyltricyclo[5.4.0.0^2,8]undecan-10-one], for which the “identification of the beaker containing the test solution” value is reported as “X” in the data set on subjects (1 ppb in deionized water, Subject 3); “X” in the data set on subjects (4 ppb in deionized water, Subject 1); “X” with subjects (4 ppb in deionized water, Subject 3); “X” in the data set on subjects (20 ppb in deionized water, Subject 1); “X” in the data set on subjects (20 ppb in deionized water, Subject 3); “X” with subjects (100 ppb in deionized water, Subject 1). Further, the “identification of the beaker containing the test solution” value in the data set with subjects (100 ppb in deionized water, Subject 2) is reported as “X”; with subjects (100 ppb in deionized water, Subject 3), “X”. The “odor intensity after storage” value in data set [3] (250-ppb aqueous solution, seven months, ambient room light, 16-26° C., opened approximately bi-weekly) is recorded as “No decrease in odor intensity”. Besides, the stability result in data set [3] (action of light, oxygen, and moisture) was “stable against the action of light, oxygen, and moisture”. Besides, the odor character result in data set [2] (listed as Example III) was “Cedar, woody, cigar box, tobacco, slightly animal—civet. Long-lasting in dry-down”; in data set [2] (listed as The compound), “intense, pleasant and characteristic cedar wood odor”.

(Values after US7348304B1, “Fragrance material” (priority 2004, dated 2008).)
